Each structure is given as a SMILES string.

In this assay the test system is HepG2 viability, CellTiter-Glo ATP luminescence, 72 h. The assay can be described thus: HepG2 cell cytotoxicity, dose response, cytotoxicity control, CellTiter-Glo luminescence, cherry-pick, set 2 (AID 743395). For orientation: In ATP-based viability assays light output follows the ATP content of the culture.
For the molecule `NS(=O)(=O)c1ccc(CCNc2nn3c(-c4cccc(OC(F)(F)F)c4)cnc3s2)cc1`, the AC35 was 16.7 µM.
To `C/C(=N\NC(=O)c1c(Cl)c(C)nn1C)c1ccc(NC(=O)C2CCC2)cc1` belongs 4.43 µM; to `O=C1/C(=C\c2cc(Cl)c(O)c(Cl)c2)SC(=S)N1Cc1ccccc1`, 15.4 µM; to `CCCC(=O)Nc1ccc2c(c1)nc(CN1CCN(C(=O)OCC)CC1)n2CC`, 18.9 µM.
To `COc1cc(C(=O)Nc2ccccc2C(=O)Nc2ccccn2)cc(OC)c1OC` belongs 4.9 µM; to `COc1cc2c(c(Br)c1N)-c1cc(Br)c(N)cc1C2=O`, 0.431 µM; to `CC(C)Nc1ccc(Nc2ccnc3cc4ccccc4cc23)cc1`, 2.44 µM.
To `CC(C)(C)N(Cc1ccccc1)C(=O)c1cc2ccccc2o1` belongs 16.1 µM.
On to `O=c1ccc2[n+]([O-])c3ccc(O)cc3oc-2c1`, for which the AC35 was 13.2 µM.
Then `c1ccc(CCNc2nc(-c3ccccn3)nc3ccccc23)cc1`, with 4.46 µM; and `Cc1cnc(NC(=O)c2ccc3c(c2)OCCO3)s1`, with 4.22 µM; and `CC(C)(C)c1ccc(OCC(=O)Nc2ccc3c4c(cccc24)C(=O)NC3=O)cc1`, with 18.5 µM.
To `COc1cccc(-c2cc3nc(-c4ccccc4)cc(=O)n3[nH]2)c1` belongs 7.55 µM; to `O=S(=O)(Cc1ccc(Cl)cc1Cl)c1ccc(Cl)cc1`, 11.3 µM.
To `O=C(NCCOc1ccccc1)c1cc([N+](=O)[O-])ccc1N1CCOCC1` belongs 6.79 µM; to `COc1cc(OC)cc(C(=O)N[C@H](C(=O)Nc2nc3ccccc3[nH]2)C(C)C)c1`, 10.2 µM; to `Cc1nn2cc(-c3cccc(Cl)c3)cnc2c1Br`, 11.1 µM.
In the case of `COc1cc(C(=O)Nc2ccc3c(c2)ncn3C)cc(OC)c1OC`, the AC35 is 14.5 µM.
To `O=C1c2ccc3c4c(ccc(c24)C(=O)N1CCCCO)C(=O)N(CCCCO)C3=O` belongs 2.63 µM; to `O=C(Nc1ccccc1)N1CCCCN2[C@@H](CO)[C@H](c3ccc(C#Cc4ccccc4)cc3)[C@@H]2C1`, 10.9 µM.
Then `Cc1ccc(C)c(CSc2nc3[nH]ncc3c(=O)[nH]2)c1`, with 5.46 µM; and `Cc1cc(C(=O)N/N=C/c2ccc(N(C)C)cc2)c2ccccc2n1`, with 8.84 µM.
As for `CCCC(=O)Nc1nc2ccc(NC(=O)c3c(F)c(F)c(OC)c(F)c3F)cc2s1`, the AC35 was 7.54 µM.
Then `COc1ccc(-c2ccc3c(c2)[C@H]2[C@H](CCN2S(=O)(=O)c2ccc(OC)cc2)[C@@H](CO)N3C)cc1`, with 18.2 µM; and `Cc1ccc(COc2ccccc2-c2cc(C(=O)N/N=C/c3cccnc3)[nH]n2)cc1`, with 14.7 µM; and `CCOC(=O)c1cc2c(=Cc3ccc(N(C)C)cc3)c3ccccc3n2[n+]1C`, with 16.6 µM.
To `O=C(CN1CCCC1)N/N=C/c1c(O)ccc2ccccc12` belongs 12.6 µM.
To `CO/N=C\CC(=O)Nc1ccc(Cl)cc1Cl` belongs 16.1 µM; to `Cc1ccc(S(=O)(=O)NCCCNS(=O)(=O)c2ccc(C)cc2)cc1`, 20 µM; to `COc1cccc(N=Nc2ccc3cccnc3c2O)c1`, 4.42 µM.
Turning to `O=c1ccc2c(-c3ccccc3)c3ccc(O)cc3oc-2c1`, the AC35 was 17.8 µM.
To `CC(C)C[C@H]1CN([C@@H](CC(C)C)CN2CCC[C@@H]2CN2C(=S)NC[C@@H]2Cc2ccc(O)cc2)C(=S)N1CCc1ccccc1` belongs 19.2 µM; to `CNc1ccc2c3c(cccc13)C(=O)N(C)C2=O`, 15.7 µM.
To `CCOC(=O)c1c(NC(=O)C(=O)N/N=C/c2ccccc2O)sc2c1CCCCC2` belongs 13.7 µM; to `Cc1ccc(CNC(=O)c2ccc3c(=O)c(O)c(-c4ccc(C)cc4)[nH]c3c2)cc1`, 1.9 µM.
To `CCOc1ccc(NC(=O)c2cc(OC)nc3ccccc23)cc1` belongs 14.3 µM; to `COc1ccc(CCNc2c3ccccc3nc3ccccc23)cc1OC`, 6.93 µM.
In the case of `CC1=C/C(=C\C=C(C#N)C#N)N(C)c2ccccc21`, the AC35 was 21.3 µM.
Then `COc1c(C=O)c2c(c(OC)c1OC)-c1ccc(OC)c(=O)cc1C(NC(C)=O)CC2` (stereo not drawn), with 3.12 µM; and `CN(Cc1ccccc1)S(=O)(=O)c1ccc(NC(=S)NC(=O)C2CCCC2)cc1`, with 9.62 µM; and `CC(=O)N1CCc2cc(S(=O)(=O)N3c4ccccc4CC3C)ccc21` (stereo not drawn), with 10.2 µM.
To `O=[N+]([O-])c1ccc(N2CCOCC2)c2c1no[n+]2[O-]` belongs 8.72 µM.
Then `COc1nc(-c2ccccc2)cc(-c2ccc3c(c2)OCO3)c1C#N`, with 8.32 µM; and `O=C(Cc1ccccc1)N1CC(=O)N2[C@H](C1)[C@@H](c1ccc(C#Cc3ccccc3)cc1)[C@@H]2CO`, with 20.3 µM.
For `CN1C(=CC=C2C=C(I)C(=O)C(I)=C2)C(C)(C)c2ccccc21`, the AC35 is 3.56 µM.
Consider `COc1cccc(-c2ccc(C3[C@@H]4CN(S(=O)(=O)c5cccc(OC)c5)C[C@H]3N4)cc2)c1` (stereo partly drawn), for which the AC35 was 8.91 µM.
To `CCOc1ccc(-c2cc(C(=O)N3CCN(c4ccccn4)CC3)c3ccccc3n2)cc1` belongs 10.9 µM; to `CCCCN1C(=O)CC(C(=O)OCC)=C1C`, 22 µM; to `COc1ccccc1N1CCN(C(=O)c2ccc(-c3ccc(Cl)cc3)o2)CC1`, 3.02 µM.
Then `COc1ccc(-c2ccc3c(c2)[C@H]2[C@H](CCN2S(=O)(=O)c2ccc(OC)cc2)[C@@H](CO)N3)cc1`, with 14.5 µM; and `COc1ccc(NC(=O)Nc2ccc3c(c2)C(=O)N([C@H](C)CO)C[C@@H](C)[C@H](CN(C)Cc2ccc(C(F)(F)F)cc2)OCCCC[C@H](C)O3)cc1`, with 13.9 µM.
Turning to `O=C(Nc1ccc(Br)cn1)c1cccc2ccccc12`, the AC35 is 5.99 µM.
Then `O=C(C1CCCCC1)N1CC(=O)N2[C@@H](CO)[C@H](c3ccc(C#Cc4cccc(F)c4)cc3)[C@@H]2C1`, with 16.4 µM; and `COc1ccc(OC)c(Nc2cc(C)nc3ccc(C)cc23)c1`, with 2.93 µM.
To `COc1ccc(C(=O)c2ccc(N(C)C)cc2)c(OC)c1` belongs 14.9 µM; to `O=C(NN=C1CCCC1)c1[nH]c2ccc(Cl)cc2c1-c1ccccc1`, 18.9 µM.
To `Cc1ccc(Nc2nc(-c3sc(C)nc3C)cs2)cc1` belongs 3.7 µM; to `CCC(=O)N1CC2(CCN(Cc3ccc(Cl)cc3)CC2)c2c([nH]c3cc(OC)ccc23)[C@H]1CO`, 9.3 µM.
Turning to `c1coc(-c2nc3ccccc3s2)c1`, the AC35 is 7.04 µM.
Then `Cc1ccccc1-c1nc(CS(=O)(=O)CC(=O)NCc2ccccc2)c(C)o1`, with 18.4 µM; and `CCCC(=O)NC1=C(Cl)C(=O)c2ccccc2C1=O`, with 9.76 µM; and `Cc1cccc(NC(=S)N/N=C/c2cccc(O)c2)c1C`, with 12.2 µM.
Then `Cc1cc2[nH]c3c(c[n+](C)c4ccccc34)c2cc1C`, with 2.58 µM.
To `Cc1ccnc2c1ccc1cccnc12` belongs 2.98 µM; to `COc1ccc([C@H]2CC(=O)C=C(c3ccc(OC)cc3OC)C2)cc1`, 7.54 µM; to `CC(=O)NC(c1ccc(Cl)cc1Cl)c1ccc2cccnc2c1O` (stereo not drawn), 0.921 µM.
In the case of `COc1ccc2c3c([nH]c2c1)[C@@H](CO)N(C(=O)C1CCOCC1)CC31CCN(Cc2cccc(F)c2)CC1`, the AC35 is 1.04 µM.
For the molecule `COc1ccc2[nH]c(C(=O)N/N=C/c3ccc(O)cc3O)cc2c1`, the AC35 is 3.37 µM.

(Values after PubChem BioAssay AID743395 (Broad Institute, 2014).)
